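A five-concentration, 48-hour dose response in 96-well plates underlies each endpoint, interpolated linearly between surrounding concentrations. TGI denotes the concentration required for complete inhibition of growth.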
Assays:
Experiment in all cases: inhibition of tumour cell growth, NCI panel, 48 h
SNB-19 CNS = system: SNB-19 CNS
NCI/ADR-RES ovarian = system: NCI/ADR-RES ovarian
SK-MEL-28 melanoma = system: SK-MEL-28 melanoma
MALME-3M melanoma = system: MALME-3M melanoma
A549 NSCLC = system: A549 NSCLC
T-47D breast = system: T-47D breast
M14 melanoma = system: M14 melanoma
EKVX NSCLC = system: EKVX NSCLC
UACC-257 melanoma = system: UACC-257 melanoma
HS 578T breast = system: HS 578T breast
HOP-92 NSCLC = system: HOP-92 NSCLC
COLO 205 colon = system: COLO 205 colon
OVCAR-5 ovarian = system: OVCAR-5 ovarian
OVCAR-3 ovarian = system: OVCAR-3 ovarian
SNB-75 CNS = system: SNB-75 CNS
IGROV1 ovarian = system: IGROV1 ovarian
MCF7 breast = system: MCF7 breast
SK-MEL-5 melanoma = system: SK-MEL-5 melanoma
KM12 colon = system: KM12 colon
HCT-116 colon = system: HCT-116 colon
BT-549 breast = system: BT-549 breast
HCT-15 colon = system: HCT-15 colon
ACHN renal = system: ACHN renal
CAKI-1 renal = system: CAKI-1 renal
SF-539 CNS = system: SF-539 CNS
MDA-N = system: MDA-N
SW-620 colon = system: SW-620 colon
SN12C renal = system: SN12C renal
K-562 leukemia = system: K-562 leukemia
OVCAR-4 ovarian = system: OVCAR-4 ovarian
SF-295 CNS = system: SF-295 CNS
MOLT-4 leukemia = system: MOLT-4 leukemia
U251 CNS = system: U251 CNS
HL-60(TB) leukemia = system: HL-60(TB) leukemia
UACC-62 melanoma = system: UACC-62 melanoma
TK-10 renal = system: TK-10 renal
NCI-H226 lung = system: NCI-H226 lung
LOX IMVI melanoma = system: LOX IMVI melanoma
RPMI-8226 leukemia = system: RPMI-8226 leukemia
HT29 colon = system: HT29 colon
MDA-MB-231 breast = system: MDA-MB-231 breast
OVCAR-8 ovarian = system: OVCAR-8 ovarian
A498 renal = system: A498 renal
NCI-H23 lung = system: NCI-H23 lung
MDA-MB-435 = system: MDA-MB-435
NCI-H460 lung = system: NCI-H460 lung
SF-268 CNS = system: SF-268 CNS
HCC-2998 colon = system: HCC-2998 colon
DU-145 prostate = system: DU-145 prostate
CCRF-CEM leukemia = system: CCRF-CEM leukemia
SK-OV-3 ovarian = system: SK-OV-3 ovarian
SK-MEL-2 melanoma = system: SK-MEL-2 melanoma
NCI-H522 lung = system: NCI-H522 lung
PC-3 prostate = system: PC-3 prostate
786-0 renal = system: 786-0 renal
UO-31 renal = system: UO-31 renal
RXF 393 renal = system: RXF 393 renal

With `COC(=O)c1ccc(NCC2=C(Br)C(=O)C=CC2=O)cc1Cl` the TGI (SNB-19 CNS) was over 100 µM, the TGI (NCI/ADR-RES ovarian) was 75.4 µM and the TGI (SK-MEL-28 melanoma) was 33.6 µM. For the same compound, the TGI (MALME-3M melanoma) was 28.4 µM, the TGI (A549 NSCLC) was over 100 µM and the TGI (T-47D breast) was 38.6 µM. For the same compound, the TGI (M14 melanoma) was 32.1 µM, the TGI (EKVX NSCLC) was 27.9 µM and the TGI (UACC-257 melanoma) was 72.2 µM. It also gave a TGI (HS 578T breast) of over 100 µM, a TGI (HOP-92 NSCLC) of 29.1 µM and a TGI (COLO 205 colon) of 31.6 µM. It also gave a TGI (OVCAR-5 ovarian) of 36.7 µM, a TGI (OVCAR-3 ovarian) of 26.8 µM and a TGI (SNB-75 CNS) of over 100 µM. It also gave a TGI (IGROV1 ovarian) of 30.5 µM, a TGI (MCF7 breast) of 30.9 µM and a TGI (SK-MEL-5 melanoma) of 41.1 µM. The TGI (KM12 colon) was over 100 µM, the TGI (HCT-116 colon) was 31.9 µM and the TGI (BT-549 breast) was 26.1 µM. It also gave a TGI (HCT-15 colon) of 29.2 µM, a TGI (ACHN renal) of 30.7 µM and a TGI (CAKI-1 renal) of 70.6 µM. It also gave a TGI (SF-539 CNS) of 35.7 µM, a TGI (MDA-N) of 35.8 µM and a TGI (SW-620 colon) of 30.8 µM. The TGI (SN12C renal) was 30.1 µM, the TGI (K-562 leukemia) was over 100 µM and the TGI (OVCAR-4 ovarian) was 62.3 µM. It also gave a TGI (SF-295 CNS) of over 100 µM, a TGI (MOLT-4 leukemia) of over 100 µM and a TGI (U251 CNS) of 43.6 µM. For the same compound, the TGI (HL-60(TB) leukemia) was over 100 µM, the TGI (UACC-62 melanoma) was 33.8 µM and the TGI (TK-10 renal) was 30.9 µM. The TGI (NCI-H226 lung) was over 100 µM, the TGI (LOX IMVI melanoma) was 28.1 µM and the TGI (RPMI-8226 leukemia) was over 100 µM. It also gave a TGI (HT29 colon) of 32.6 µM, a TGI (MDA-MB-231 breast) of 34.8 µM and a TGI (OVCAR-8 ovarian) of 47.1 µM. For the same compound, the TGI (A498 renal) was over 100 µM, the TGI (NCI-H23 lung) was 45.8 µM and the TGI (MDA-MB-435) was 38.1 µM. The TGI (NCI-H460 lung) was 32.2 µM, the TGI (SF-268 CNS) was 35.1 µM and the TGI (HCC-2998 colon) was over 100 µM. For the same compound, the TGI (DU-145 prostate) was 42.5 µM, the TGI (CCRF-CEM leukemia) was over 100 µM and the TGI (SK-OV-3 ovarian) was over 100 µM. The TGI (SK-MEL-2 melanoma) was 52.6 µM, the TGI (NCI-H522 lung) was 21.2 µM and the TGI (PC-3 prostate) was 43.8 µM. It also gave a TGI (786-0 renal) of 26.1 µM and a TGI (UO-31 renal) of 34.7 µM.
`CC1C2(C)OCC(C#N)(C(=N)O2)C1(C#N)C#N` (centres undefined) showed a TGI (SNB-19 CNS) of over 100 µM, a TGI (NCI/ADR-RES ovarian) of over 100 µM and a TGI (SK-MEL-28 melanoma) of 97.6 µM. It also gave a TGI (MALME-3M melanoma) of 51.8 µM, a TGI (A549 NSCLC) of over 100 µM and a TGI (T-47D breast) of 30.2 µM. The TGI (M14 melanoma) was 39.2 µM, the TGI (EKVX NSCLC) was 52.7 µM and the TGI (UACC-257 melanoma) was 71.2 µM. For the same compound, the TGI (HS 578T breast) was 74.4 µM, the TGI (HOP-92 NSCLC) was 48.9 µM and the TGI (COLO 205 colon) was 27.8 µM. For the same compound, the TGI (OVCAR-5 ovarian) was 85.6 µM, the TGI (OVCAR-3 ovarian) was 28.4 µM and the TGI (SNB-75 CNS) was over 100 µM. The TGI (IGROV1 ovarian) was over 100 µM, the TGI (MCF7 breast) was 52.3 µM and the TGI (SK-MEL-5 melanoma) was 23.4 µM. For the same compound, the TGI (KM12 colon) was over 100 µM, the TGI (HCT-116 colon) was 42.1 µM and the TGI (BT-549 breast) was over 100 µM. The TGI (HCT-15 colon) was 26.3 µM, the TGI (ACHN renal) was over 100 µM and the TGI (CAKI-1 renal) was 25 µM. The TGI (SF-539 CNS) was 57.3 µM, the TGI (MDA-N) was 41.7 µM and the TGI (SW-620 colon) was over 100 µM. The TGI (SN12C renal) was 29.1 µM, the TGI (K-562 leukemia) was over 100 µM and the TGI (SF-295 CNS) was over 100 µM. For the same compound, the TGI (MOLT-4 leukemia) was over 100 µM, the TGI (U251 CNS) was 40.4 µM and the TGI (HL-60(TB) leukemia) was 38.2 µM. The TGI (UACC-62 melanoma) was 76.1 µM, the TGI (TK-10 renal) was over 100 µM and the TGI (NCI-H226 lung) was over 100 µM. The TGI (LOX IMVI melanoma) was 40.4 µM, the TGI (HT29 colon) was 35.3 µM and the TGI (MDA-MB-231 breast) was 42.8 µM. For the same compound, the TGI (OVCAR-8 ovarian) was 84.2 µM, the TGI (A498 renal) was over 100 µM and the TGI (NCI-H23 lung) was 86.9 µM. For the same compound, the TGI (MDA-MB-435) was over 100 µM, the TGI (NCI-H460 lung) was 42.2 µM and the TGI (SF-268 CNS) was 74.3 µM. For the same compound, the TGI (DU-145 prostate) was 74.3 µM, the TGI (CCRF-CEM leukemia) was over 100 µM and the TGI (SK-OV-3 ovarian) was over 100 µM. For the same compound, the TGI (SK-MEL-2 melanoma) was 33.5 µM, the TGI (PC-3 prostate) was 83.3 µM and the TGI (RXF 393 renal) was 65.7 µM. The TGI (786-0 renal) was 55.3 µM and the TGI (UO-31 renal) was over 100 µM.
